Measurements published in US11072632B2, “Inhibitors of 17β-HSD1, 17β-HSD3 and 17β-HSD10” (UNIVERSITÉ LAVAL, priority 2011, dated 2021).

Legend:
[1] = molecular target: T1, human ERα (Homo sapiens, UniProt P03372); experiment: ERα competitive binding assay (recombinant human ERα); conditions: FIG. 5B
T1 construct: purified full-length recombinant human ERα (Life Technologies, Grand Island, N.Y.); purchased Life Technologies
T1 sequence (P03372 1-595): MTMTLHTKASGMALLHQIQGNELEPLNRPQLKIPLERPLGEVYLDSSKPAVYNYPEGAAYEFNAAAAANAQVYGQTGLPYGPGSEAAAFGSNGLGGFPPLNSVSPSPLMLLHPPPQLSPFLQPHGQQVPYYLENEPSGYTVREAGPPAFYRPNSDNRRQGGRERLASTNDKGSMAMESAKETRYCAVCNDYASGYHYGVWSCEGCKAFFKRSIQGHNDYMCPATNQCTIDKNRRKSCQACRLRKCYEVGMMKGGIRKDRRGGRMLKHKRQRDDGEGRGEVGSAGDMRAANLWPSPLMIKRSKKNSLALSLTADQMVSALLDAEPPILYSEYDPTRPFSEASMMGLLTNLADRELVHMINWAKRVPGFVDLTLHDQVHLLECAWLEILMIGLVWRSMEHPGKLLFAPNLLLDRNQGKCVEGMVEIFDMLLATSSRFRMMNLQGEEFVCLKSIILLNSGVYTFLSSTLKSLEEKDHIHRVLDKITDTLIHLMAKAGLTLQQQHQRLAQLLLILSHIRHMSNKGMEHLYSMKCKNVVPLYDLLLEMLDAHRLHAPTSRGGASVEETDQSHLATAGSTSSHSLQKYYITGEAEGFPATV
Experimental: (§1) Non-specific binding was determined by incubation with an excess of cold estradiol (1 μM). After an overnight incubation at 4° C., 100 μl of cold 50% hydroxyapatite slurry was added to bind the receptor/ligand complex. After 15 minutes, 1 mL of wash buffer (40 mM Tris, 1 mM EDTA, 1 mM EGTA, 100 mM KCl, pH 7.4) was added and the tubes were centrifuged at 4500 rpm for 5 minutes at 4° C. The washing step was repeated twice. The radioactivity of the pellet was extracted by incubation with 1 mL of ethanol for 1 h at room temperature.
as §1, with “A competitive binding assay using a purified full-length recombinant human ERα (Life Technologies, Grand Island, N.Y.). […] Non-specific” for “Non-specific”, “E2” for “cold estradiol”, “μL” for “μl”

[2] = tested on: T-47D cells; experiment: Estrogenic (proliferative) activity on T-47D (ER+) cell line; type: cell-based, human; conditions: 0.5, 1, 2.5 and 5 μM, 7 days
Experimental: Quantification of cell growth was determined by using CellTiter 96®Aqueous Solution Cell Proliferation Assay (Promega, Nepean, ON, Canada) following the manufacturer's instructions. T-47D cells were resuspended with the medium supplemented with insulin (50 ng/mL) and 5% dextran-coated charcoal treated FBS rather than 10% FBS to remove remaining hormones. Aliquots (100 μL) of the cell suspension were seeded in 96-well plates (3000 cells/well). After 48 h, the medium was changed with a new one containing an appropriate concentration of products to be tested and was replaced every 2 days. Cells have grown either in absence or presence of the compounds for 7 days. To determine the proliferative (estrogenic) activity, the estrogen-sensitive T-47D cells were grown in absence (basal cell proliferation was fixed as 100%) or presence of compounds to be tested at 0.5 to 10 μM. The potent estrogen E2 was used as a reference control. […] The cell proliferation without E1±inhibitor (control) was fixed as 100%. To determine the potential antiestrogenic activity of inhibitor Compound V, the T-47D (ER^+) cells were grown in the presence of estrogen E2 (0.1 nM) and pure antiestrogen EM-139 (0.5 μM) or inhibitor Compound V (0.5 μM). The cell proliferation without E2 and tested compounds (control) were fixed as 100%.

Row | SMILES | relative binding affinity (RBA) [1] | estrogenic (proliferative) activity on T-47D cells [2]
1 | C[C@]12CC[C@@H]3c4ccc(O)cc4CC[C@H]3[C@@H]1C[C@H](Cc1cccc(C(N)=O)c1)[C@@H]2O [Compound I, 16β-(m-carbamoylbenzyl)estradiol, reference compound] | 1.5% | 
2 | C[C@]12CC[C@@H]3c4ccc(CCBr)cc4CC[C@H]3[C@@H]1C[C@H](Cc1cccc(C(N)=O)c1)[C@@H]2O [Compound V, 3-{[(16β,17β)-3-(2-bromoethyl)-17-hydroxyestra-1(10),2,4-trien-16-yl]methyl}benzamide] |  | not estrogenic at any concentration tested
